Assay results: patent publication US9072698B2, “Method for screening anti-cancer compounds inhibiting function of TM4SF5 and anti-cancer composition containing chalcone compounds” (Seoul National University Industry Foundation, priority 2006, dated 2015)
Values after ≈ are worked out from the molar mass of the structure shown.

Experiments:
Type in all cases: cell-based
[1] = test system: HCT15 (colon adenocarcinoma); test: In vitro cytotoxicity, sulforhodamine B (SRB) method, HCT15; settings: Homo sapiens; HCT-15, SRB method; read-out: cytotoxicity (ED50) HCT-15
Experimental: (§1) The chalcone derivatives of the present invention were evaluated for in vitro cytotoxicity against human carcinoma cell lines using a sulforhodamine B (SRB) method, which was developed in 1989 by the National Cancer Institute (NCI), USA.
(§2) HCT15 (colon adenocarcinoma; ATCC CCL-225), PC-3 (prostate adenocarcinoma; ATCC CRL-1435), and A-549 (lung carcinoma; ATCC CCL-185) cell lines were used. All of these carcinoma cells were sub-cultured at the Korean Research Institute of Bioscience and Biotechnology (KRIBB), Korea.
(§3) The human carcinoma cell lines were cultured in 10% FCS-containing RPMI 1640 medium (Gibco Cat. No. 31800) in an incubator at 37° C. under 5% CO2, and sub-cultured twice per week.
(§4) Cells were detached from the attached surface using 0.25% Trypsin (Sigma) and 3 mM CDTA (1,2-cyclohexane diamine tetraacetic acid, Sigma) in phosphate buffered saline (PBS, Sigma).
(§5) Compounds to be tested (the chalcone derivatives set forth in Table 1) were dissolved in a small amount of dimethylsulfoxide (DMSO, Sigma), and diluted in culture medium to a desired concentration. The final concentration of DMSO was less than 0.5%. The diluted compounds (final concentration: 30, 10, 3, 1 and 0.3 μg/ml) were sterilized through a 0.22-μm microfilter (Millipore). The cytotoxicity of the compounds to human carcinoma cell lines was assessed using a typical SRB method.

A-549 (lung carcinoma) = test: In vitro cytotoxicity, sulforhodamine B (SRB) method, A-549; settings: Homo sapiens, A549; A-549, SRB method; read-out: cytotoxicity (ED50) A-549
Experimental: as §1, §2, §3, §4, §5

[2] = test system: PC-3 (prostate adenocarcinoma); test: In vitro cytotoxicity, sulforhodamine B (SRB) method, PC-3; settings: Homo sapiens; PC-3, SRB method; read-out: cytotoxicity (ED50) PC-3
Experimental: as §1, §2, §3, §4, §5

Row | SMILES | IC50 [1] [µg/mL] | IC50 (A-549 (lung carcinoma)) [µg/mL] | IC50 [2] [µg/mL]
1 | O=C(/C=C/c1cccc(O)c1)c1ccc(NS(=O)(=O)c2ccc(O)cc2)cc1 [Compound 7, 4′-(p-hydroxybenzenesulfonylamino)-3-hydroxychalcone] | 33 (≈ 83.5 µM) | 30 (≈ 75.9 µM) | 37 (≈ 93.6 µM)
2 | O=C(/C=C/c1cccc(O)c1)c1ccccc1NS(=O)(=O)c1cccc(O)c1 [Compound 22, 2′-(m-hydroxybenzenesulfonylamino)-3-hydroxychalcone] | 28 (≈ 70.8 µM) | 27 (≈ 68.3 µM) | 45 (≈ 114 µM)
3 | O=C(/C=C/c1ccc(O)cc1O)c1ccc(OS(=O)(=O)c2cccc(O)c2)cc1 [Compound 96, 4′-(m-hydroxybenzenesulfonate)-2,4-dihydroxychalcone] | 8 (≈ 19.4 µM) | 7 (≈ 17 µM) | 24 (≈ 58.2 µM)
4 | Cc1ccc(S(=O)(=O)Nc2ccc(C(=O)/C=C/c3ccccc3O)cc2)cc1 [Compound 3, 4′-(p-toluenesulfonylamino)-2-hydroxychalcone] | 40 (≈ 102 µM) | 35 (≈ 89 µM) | 37 (≈ 94 µM)
5 | O=C(/C=C/c1cc(O)ccc1O)c1cccc(NS(=O)(=O)c2cccc(O)c2)c1 [Compound 67, 3′-(m-hydroxybenzenesulfonylamino)-2,5-dihydroxychalcone] | 7 (≈ 17 µM) | 14 (≈ 34 µM) | 15 (≈ 36.5 µM)
6 | O=C(/C=C/c1ccc(O)c(O)c1)c1ccc(NS(=O)(=O)c2ccc([N+](=O)[O-])cc2)cc1 [Compound 75, 4′-(p-nitrobenzensulfonylamino)-3,4-dihydroxychalcone] | 8 (≈ 18.2 µM) | 14 (≈ 31.8 µM) | 15 (≈ 34.1 µM)
7 | O=C(/C=C/c1ccc(O)c(O)c1)c1ccc(NS(=O)(=O)c2ccccc2)cc1 [Compound 81, 4′-(benzensulfonylamino)-3,4-dihydroxychalcone] | 14 (≈ 35.4 µM) | 28 (≈ 70.8 µM) | 24 (≈ 60.7 µM)
8 | O=C(/C=C/c1ccc(O)cc1)c1ccc(NS(=O)(=O)c2cccc(F)c2)cc1 [Compound 25, 4′-(m-fluorobenzensulfonylamino)-4-hydroxychalcone] | 54 (≈ 136 µM) | 51 (≈ 128 µM) | 57 (≈ 143 µM)
9 | O=C(/C=C/c1ccc(O)cc1)c1ccc(NS(=O)(=O)c2ccc([N+](=O)[O-])cc2)cc1 [Compound 27, 4′-(p-nitrobenzensulfonylamino)-4-hydroxychalcone] | 41 (≈ 96.6 µM) | 34 (≈ 80.1 µM) | 47 (≈ 111 µM)
10 | Cc1ccc(S(=O)(=O)Nc2ccccc2C(=O)/C=C/c2ccc(O)c(O)c2)cc1 [Compound 47, 2′-(p-toluenesulfonylamino)-3,4-dihydroxychalcone] | 8 (≈ 19.5 µM) | 11 (≈ 26.9 µM) | 17 (≈ 41.5 µM)
11 | O=C(/C=C/c1ccc(O)cc1)c1ccc(OS(=O)(=O)c2ccc(O)cc2)cc1 [Compound 84, 4′-(p-hydroxybenzenesulfonate)-4-hydroxychalcone] | 32 (≈ 80.7 µM) | 38 (≈ 95.9 µM) | 22 (≈ 55.5 µM)
12 | O=C(/C=C/c1ccc(O)c(O)c1)c1cccc(NS(=O)(=O)c2ccc(O)cc2)c1 [Compound 52, 3′-(p-hydroxybenzenesulfonylamino)-3,4-dihydroxychalcone] | 7 (≈ 17 µM) | 6 (≈ 14.6 µM) | 5 (≈ 12.2 µM)
13 | O=C(/C=C/c1cccc(O)c1)c1ccc(OS(=O)(=O)c2cccc(O)c2)cc1 [Compound 88, 4′-(m-hydroxybenzenesulfonate)-3-hydroxychalcone] | 21 (≈ 53 µM) | 32 (≈ 80.7 µM) | 28 (≈ 70.6 µM)
14 | O=C(/C=C/c1ccc(O)c(O)c1)c1ccc(NS(=O)(=O)c2cccc([N+](=O)[O-])c2)cc1 [Compound 76, 4′-(m-nitrobenzensulfonylamino)-3,4-dihydroxychalcone] | 12 (≈ 27.2 µM) | 11 (≈ 25 µM) | 17 (≈ 38.6 µM)
15 | O=C(/C=C/c1ccc(O)cc1O)c1ccc(NS(=O)(=O)c2cccc(O)c2)cc1 [Compound 62, 4′-(m-hydroxybenzenesulfonylamino)-2,4-dihydroxychalcone] | 7 (≈ 17 µM) | 12 (≈ 29.2 µM) | 8 (≈ 19.4 µM)
16 | O=C(/C=C/c1cc(O)ccc1O)c1cccc(NS(=O)(=O)c2ccc(O)cc2)c1 [Compound 55, 3′-(p-hydroxybenzenesulfonylamino)-2,5-dihydroxychalcone] | 6 (≈ 14.6 µM) | 7 (≈ 17 µM) | 12 (≈ 29.2 µM)
17 | CS(=O)(=O)Nc1ccc(C(=O)/C=C/c2ccc(O)c(O)c2)cc1 [Compound 82, 4′-(methanesulfonylamino)-3,4-dihydroxychalcone] | 12 (≈ 36 µM) | 17 (≈ 51 µM) | 22 (≈ 66 µM)
18 | O=C(/C=C/c1ccc(O)cc1O)c1ccccc1NS(=O)(=O)c1ccc(O)cc1 [Compound 58, 2′-(p-hydroxybenzenesulfonylamino)-2,4-dihydroxychalcone] | 11 (≈ 26.7 µM) | 12 (≈ 29.2 µM) | 10 (≈ 24.3 µM)
19 | Nc1ccccc1S(=O)(=O)Nc1ccc(C(=O)/C=C/c2ccc(O)c(O)c2)cc1 [Compound 80, 4′-(o-aminobenzensulfonylamino)-3,4-dihydroxychalcone] | 13 (≈ 31.7 µM) | 11 (≈ 26.8 µM) | 23 (≈ 56 µM)
20 | O=C(/C=C/c1cccc(O)c1O)c1ccccc1NS(=O)(=O)c1cccc(O)c1 [Compound 69, 2′-(m-hydroxybenzenesulfonylamino)-2,3-dihydroxychalcone] | 7 (≈ 17 µM) | 8 (≈ 19.4 µM) | 16 (≈ 38.9 µM)
21 | Cc1ccc(S(=O)(=O)Nc2cccc(C(=O)/C=C/c3ccc(O)c(O)c3)c2)cc1 [Compound 46, 3′-(p-toluenesulfonylamino)-3,4-dihydroxychalcone] | 9 (≈ 22 µM) | 13 (≈ 31.7 µM) | 8 (≈ 19.5 µM)
22 | Nc1ccc(S(=O)(=O)Oc2ccc(C(=O)/C=C/c3ccc(O)cc3)cc2)cc1 [Compound 39, 4′-(p-aminobenzenesulfonate)-4-hydroxychalcone] | 39 (≈ 98.6 µM) | 37 (≈ 93.6 µM) | 38 (≈ 96.1 µM)
23 | Nc1ccc(S(=O)(=O)Nc2ccc(C(=O)/C=C/c3ccc(O)cc3)cc2)cc1 [Compound 30, 4′-(p-aminobenzensulfonylamino)-4-hydroxychalcone] | 52 (≈ 132 µM) | 50 (≈ 127 µM) | 59 (≈ 150 µM)
24 | O=C(/C=C/c1cccc(O)c1O)c1cccc(NS(=O)(=O)c2cccc(O)c2)c1 [Compound 65, 3′-(m-hydroxybenzenesulfonylamino)-2,3-dihydroxychalcone] | 9 (≈ 21.9 µM) | 4 (≈ 9.72 µM) | 13 (≈ 31.6 µM)
